What was measured:
ECHANGEUR D'ANIONS = target: T1, ECHANGEUR D'ANIONS (Homo sapiens, UniProt P02730); assay: Anion exchanger of human erythrocytes; format: cell-based, ERYTHROCYTES HUMAINS; details: read-out: EFFET SUR L'ECHANGEUR D'ANIONS IC 50
T1 construct: systèmes de transport du sodium et du potassium des érythrocytes humains; endogenous in cells; host or cells: human erythrocytes
T1 sequence (P02730 1-911): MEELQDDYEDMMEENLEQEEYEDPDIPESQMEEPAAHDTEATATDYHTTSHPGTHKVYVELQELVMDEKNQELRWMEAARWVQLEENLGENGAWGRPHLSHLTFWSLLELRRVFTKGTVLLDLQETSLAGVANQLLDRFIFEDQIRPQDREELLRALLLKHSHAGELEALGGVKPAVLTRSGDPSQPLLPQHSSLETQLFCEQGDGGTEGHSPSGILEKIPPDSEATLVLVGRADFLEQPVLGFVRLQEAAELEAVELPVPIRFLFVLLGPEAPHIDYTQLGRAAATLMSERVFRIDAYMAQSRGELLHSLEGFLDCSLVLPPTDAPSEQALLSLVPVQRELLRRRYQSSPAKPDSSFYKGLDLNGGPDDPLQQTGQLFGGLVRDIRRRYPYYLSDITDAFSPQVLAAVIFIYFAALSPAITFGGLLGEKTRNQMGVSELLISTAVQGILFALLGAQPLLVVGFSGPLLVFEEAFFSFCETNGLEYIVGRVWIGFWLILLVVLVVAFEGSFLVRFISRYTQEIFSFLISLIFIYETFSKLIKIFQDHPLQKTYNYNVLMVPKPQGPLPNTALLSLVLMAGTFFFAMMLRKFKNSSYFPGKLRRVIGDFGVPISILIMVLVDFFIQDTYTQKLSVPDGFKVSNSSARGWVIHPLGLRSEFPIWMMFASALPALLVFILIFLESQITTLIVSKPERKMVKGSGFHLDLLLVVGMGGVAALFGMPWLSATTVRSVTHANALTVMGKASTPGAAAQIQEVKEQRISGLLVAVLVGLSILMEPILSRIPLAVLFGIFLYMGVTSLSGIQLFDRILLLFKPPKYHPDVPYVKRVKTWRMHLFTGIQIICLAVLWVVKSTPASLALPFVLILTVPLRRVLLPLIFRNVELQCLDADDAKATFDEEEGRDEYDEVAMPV
From the text: Cet effet a été étudié selon la méthodologie décrite par G. GARAY et coll. dans Naunyn-Schmidberg's Arch. Pharmakol. 334 (1986) 202-209 et dans Bioch. Pharm. 33 (1984) 2013-2020.

lipoxygénase de soja = target: T2, lipoxygénase de soja (Glycine max, UniProt P08170); assay: Anti-lipoxygenase action on soybean lipoxygenase; format: biochemical
T2 sequence (P08170 1-839): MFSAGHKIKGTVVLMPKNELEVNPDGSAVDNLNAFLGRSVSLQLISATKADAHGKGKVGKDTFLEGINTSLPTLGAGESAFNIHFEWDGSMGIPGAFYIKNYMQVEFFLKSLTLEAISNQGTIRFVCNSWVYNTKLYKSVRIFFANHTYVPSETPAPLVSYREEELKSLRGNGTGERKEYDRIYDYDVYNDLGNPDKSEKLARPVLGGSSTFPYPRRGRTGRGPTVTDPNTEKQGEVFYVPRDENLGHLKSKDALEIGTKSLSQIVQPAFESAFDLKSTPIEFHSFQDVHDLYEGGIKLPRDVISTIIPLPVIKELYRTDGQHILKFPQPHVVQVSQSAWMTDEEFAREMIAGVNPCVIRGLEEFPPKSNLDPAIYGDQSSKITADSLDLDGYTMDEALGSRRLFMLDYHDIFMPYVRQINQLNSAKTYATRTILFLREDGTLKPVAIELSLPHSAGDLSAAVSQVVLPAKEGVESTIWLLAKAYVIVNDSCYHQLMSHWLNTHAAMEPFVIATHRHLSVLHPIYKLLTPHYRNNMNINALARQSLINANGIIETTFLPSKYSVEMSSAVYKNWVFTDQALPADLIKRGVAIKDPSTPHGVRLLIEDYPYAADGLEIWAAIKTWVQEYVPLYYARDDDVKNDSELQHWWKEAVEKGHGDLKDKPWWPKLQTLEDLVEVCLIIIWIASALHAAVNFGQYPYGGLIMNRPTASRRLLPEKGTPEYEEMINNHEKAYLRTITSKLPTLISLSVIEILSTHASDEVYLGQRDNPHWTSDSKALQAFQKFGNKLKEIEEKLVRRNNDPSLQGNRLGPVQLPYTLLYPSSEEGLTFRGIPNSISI
From the text: L'action anti-lipoxygénase a été étudiée sur la lipoxygénase de soja selon la méthode décrite par W.L SMITH et W.E LANDS (J. Biol. Chem. 247 (1972) 1038-1047)

Cc1ccc(O)c(CCOc2ccccc2)c1 [ex 36]
IC50 (ECHANGEUR D'ANIONS): 0.8 µM
ACTIVITE ANTI-LIPOXYGENASE IC 50 (lipoxygénase de soja): Inactif

From patent EP0428423A2, “Aryloxy alkyl benzenes, processes for their preparation and pharmaceutical compositions containing them” (LIPHA S.A., priority 1989, dated 1991)
